Experimental data reported in US12043632B2, “6-heteroaryloxy benzimidazoles and azabenzimidazoles as JAK2 inhibitors” (Ajax Therapeutics, Inc., priority 2020, dated 2024).

Molecular target: T1, JAK2 (JH1domain-catalytic, Y1007F,Y1008F) kinase (Homo sapiens, UniProt O60674, Y1007F/Y1008F)
T1 construct: JAK2 (JH1domain-catalytic, Y1007F,Y1008F) kinase was expressed as N-terminal fusion; made in house; host or cells: transiently transfected HEK293 cells
Test: JAK2 JH1 Domain Binding Assay
Details: qPCR readout

T1 sequence (O60674 849-1124 Y1007F/Y1008F limits assumed): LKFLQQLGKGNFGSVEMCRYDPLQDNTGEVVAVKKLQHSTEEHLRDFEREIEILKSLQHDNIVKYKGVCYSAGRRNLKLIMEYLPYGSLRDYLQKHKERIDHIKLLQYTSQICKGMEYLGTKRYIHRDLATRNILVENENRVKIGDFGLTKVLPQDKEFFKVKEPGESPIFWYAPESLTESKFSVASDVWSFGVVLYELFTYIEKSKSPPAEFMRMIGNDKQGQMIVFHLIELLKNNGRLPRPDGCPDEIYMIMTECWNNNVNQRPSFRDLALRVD

Row | Kd | Structure (SMILES)
1 | 10 to 50 nM | COc1cn2ncc(Oc3cnc4nc(Nc5cc(C(F)(F)F)cn(C)c5=O)n(C)c4c3C#N)c2cn1 [Example I-364, 6-((6-methoxypyrazolo[1,5-a]pyrazin-3-yl)oxy)-1-methyl-2-((1-methyl-2-oxo-5-(trifluoromethyl)-1,2-dihydropyridin-3-yl)amino)-1H-imidazo[4,5-b]pyridine-7-carbonitrile]
2 | < 10 nM | COCCOc1cn2ncc(Oc3cnc4nc(Nc5cc(C(F)(F)F)cn(C)c5=O)n(C)c4c3Cl)c2cn1 [Example I-365, 3-((7-chloro-6-((6-(2-methoxyethoxy)pyrazolo[1,5-a]pyrazin-3-yl)oxy)-1-methyl-1H-imidazo[4,5-b]pyridin-2-yl)amino)-1-methyl-5-(trifluoromethyl)pyridin-2(1H)-one]
3 | < 10 nM | Cn1c(Nc2cc3n(n2)CCCC3(F)F)nc2ncc(Oc3cnn4ccccc34)c(C#N)c21 [Example I-366, 2-((4,4-difluoro-4,5,6,7-tetrahydropyrazolo[1,5-a]pyridin-2-yl)amino)-1-methyl-6-(pyrazolo[1,5-a]pyridin-3-yloxy)-1H-imidazo[4,5-b]pyridine-7-carbonitrile]
4 | < 10 nM | COCCOc1cn2ncc(Oc3cnc4nc(Nc5cc(C(F)(F)F)cn(C)c5=O)n(C)c4c3C#N)c2cn1 [Example I-367, 6-((6-(2-methoxyethoxy)pyrazolo[1,5-a]pyrazin-3-yl)oxy)-1-methyl-2-((1-methyl-2-oxo-5-(trifluoromethyl)-1,2-dihydropyridin-3-yl)amino)-1H-imidazo[4,5-b]pyridine-7-carbonitrile]
5 | < 10 nM | CN(C)c1n[nH]c2ncc(Oc3cnc4nc(Nc5cc(C(F)(F)F)cn(C)c5=O)n(C)c4c3C#N)cc12 [Example I-368, 6-((3-(dimethylamino)-1H-pyrazolo[3,4-b]pyridin-5-yl)oxy)-1-methyl-2-((1-methyl-2-oxo-5-(trifluoromethyl)-1,2-dihydropyridin-3-yl)amino)-1H-imidazo[4,5-b]pyridine-7-carbonitrile]
6 | < 10 nM | COCCOc1ccc2c(Oc3cnc4nc(Nc5cc6n(n5)CCCC6(F)F)n(C)c4c3C#N)cnn2c1 [Example I-369, 2-((4,4-difluoro-4,5,6,7-tetrahydropyrazolo[1,5-a]pyridin-2-yl)amino)-6-((6-(2-methoxyethoxy)pyrazolo[1,5-a]pyridin-3-yl)oxy)-1-methyl-1H-imidazo[4,5-b]pyridine-7-carbonitrile]
7 | < 10 nM | Cn1c(Nc2cc3n(n2)CCCC3(F)F)nc2ncc(Oc3cnc4[nH]ncc4c3)c(C#N)c21 [Example I-370, 6-((1H-pyrazolo[3,4-b]pyridin-5-yl)oxy)-2-((4,4-difluoro-4,5,6,7-tetrahydropyrazolo[1,5-a]pyridin-2-yl)amino)-1-methyl-1H-imidazo[4,5-b]pyridine-7-carbonitrile]
8 | < 10 nM | CNc1nccn2ncc(Oc3cnc4nc(Nc5cc6n(n5)CCCC6(F)F)n(C)c4c3C#N)c12 [Example I-373, 2-((4,4-difluoro-4,5,6,7-tetrahydropyrazolo[1,5-a]pyridin-2-yl)amino)-1-methyl-6-((4-(methylamino)pyrazolo[1,5-a]pyrazin-3-yl)oxy)-1H-imidazo[4,5-b]pyridine-7-carbonitrile]
9 | < 10 nM | COc1ccc2c(Oc3cnc4nc(Nc5cc6n(n5)CCCC6(F)F)n(C)c4c3C#N)cnn2c1 [Example I-374, 2-((4,4-difluoro-4,5,6,7-tetrahydropyrazolo[1,5-a]pyridin-2-yl)amino)-6-((6-methoxypyrazolo[1,5-a]pyridin-3-yl)oxy)-1-methyl-1H-imidazo[4,5-b]pyridine-7-carbonitrile]
10 | < 10 nM | COCCOc1cn2ncc(Oc3cnc4nc(Nc5cc(C6CC6)cn(C)c5=O)n(C)c4c3Cl)c2cn1 [Example I-375, 3-((7-chloro-6-((6-(2-methoxyethoxy)pyrazolo[1,5-a]pyrazin-3-yl)oxy)-1-methyl-1H-imidazo[4,5-b]pyridin-2-yl)amino)-5-cyclopropyl-1-methylpyridin-2(1H)-one]
11 | < 10 nM | Cn1cc(C(F)(F)F)cc(Nc2nc3ncc(Oc4cnn5cc(OCCN6CCOCC6)ncc45)c(Cl)c3n2C)c1=O [Example I-376, 3-((7-chloro-1-methyl-6-((6-(2-morpholinoethoxy)pyrazolo[1,5-a]pyrazin-3-yl)oxy)-1H-imidazo[4,5-b]pyridin-2-yl)amino)-1-methyl-5-(trifluoromethyl)pyridin-2(1H)-one]
12 | < 10 nM | Cn1cc(C(F)(F)F)cc(Nc2nc3ncc(Oc4cnn5cc(OCCN6CCOCC6)ncc45)c(C#N)c3n2C)c1=O [Example I-377, 1-methyl-2-((1-methyl-2-oxo-5-(trifluoromethyl)-1,2-dihydropyridin-3-yl)amino)-6-((6-(2-morpholinoethoxy)pyrazolo[1,5-a]pyrazin-3-yl)oxy)-1H-imidazo[4,5-b]pyridine-7-carbonitrile]
13 | < 10 nM | COc1n[nH]c2ncc(Oc3cnc4nc(Nc5cc6n(n5)CCCC6(F)F)n(C)c4c3C#N)cc12 [Example I-378, 2-((4,4-difluoro-4,5,6,7-tetrahydropyrazolo[1,5-a]pyridin-2-yl)amino)-6-((3-methoxy-1H-pyrazolo[3,4-b]pyridin-5-yl)oxy)-1-methyl-1H-imidazo[4,5-b]pyridine-7-carbonitrile]
14 | < 10 nM | CNc1cc(F)c2c(Oc3cnc4nc(Nc5cc(C(F)(F)F)cn(C)c5=O)n(C)c4c3C#N)cnn2c1 [Example I-395, 6-((4-fluoro-6-(methylamino)pyrazolo[1,5-a]pyridin-3-yl)oxy)-1-methyl-2-((1-methyl-2-oxo-5-(trifluoromethyl)-1,2-dihydropyridin-3-yl)amino)-1H-imidazo[4,5-b]pyridine-7-carbonitrile]
15 | 10 to 50 nM | CNc1cn2ncc(Oc3cnc4nc(Nc5cc(C(F)(F)F)cn(C)c5=O)n(C)c4c3C#N)c2c(C)n1 [Example I-396, 1-methyl-2-((1-methyl-2-oxo-5-(trifluoromethyl)-1,2-dihydropyridin-3-yl)amino)-6-((4-methyl-6-(methylamino)pyrazolo[1,5-a]pyrazin-3-yl)oxy)-1H-imidazo[4,5-b]pyridine-7-carbonitrile]
16 | < 10 nM | Cn1cc(C(F)(F)F)cc(Nc2nc3ncc(Oc4cnn5cc(OCCO)ncc45)c(Cl)c3n2C)c1=O [Example I-397, 3-((7-chloro-6-((6-(2-hydroxyethoxy)pyrazolo[1,5-a]pyrazin-3-yl)oxy)-1-methyl-1H-imidazo[4,5-b]pyridin-2-yl)amino)-1-methyl-5-(trifluoromethyl)pyridin-2(1H)-one]
17 | < 10 nM | Cn1c(Nc2cc3n(n2)CCCC3(C)C)nc2ncc(Oc3cnn4cc(OCCO)ncc34)c(Cl)c21 [Example I-398, 2-((3-((7-chloro-2-((4,4-dimethyl-4,5,6,7-tetrahydropyrazolo[1,5-a]pyridin-2-yl)amino)-1-methyl-1H-imidazo[4,5-b]pyridin-6-yl)oxy)pyrazolo[1,5-a]pyrazin-6-yl)oxy)ethan-1-ol]
18 | < 10 nM | COCc1n[nH]c2ncc(Oc3cnc4nc(Nc5cc6n(n5)CCCC6(F)F)n(C)c4c3C#N)cc12 [Example I-399, 2-((4,4-difluoro-4,5,6,7-tetrahydropyrazolo[1,5-a]pyridin-2-yl)amino)-6-((3-(methoxymethyl)-1H-pyrazolo[3,4-b]pyridin-5-yl)oxy)-1-methyl-1H-imidazo[4,5-b]pyridine-7-carbonitrile]
19 | < 10 nM | Cn1c(Nc2cc(C(F)(F)F)n(C3CC4(CCOCC4)C3)n2)nc2ncc(Oc3cnc4[nH]ncc4c3)c(C#N)c21 [Example I-400, 6-((1H-pyrazolo[3,4-b]pyridin-5-yl)oxy)-2-((1-(7-oxaspiro[3.5]nonan-2-yl)-5-(trifluoromethyl)-1H-pyrazol-3-yl)amino)-1-methyl-1H-imidazo[4,5-b]pyridine-7-carbonitrile]
20 | 10 to 50 nM | Cn1c(Nc2cc(C(F)(F)F)n(C3CC4(CCOCC4)C3)n2)nc2ncc(Oc3cnc4[nH]ccc4c3)c(C#N)c21 [Example I-401, 6-((1H-pyrrolo[2,3-b]pyridin-5-yl)oxy)-2-((1-(7-oxaspiro[3.5]nonan-2-yl)-5-(trifluoromethyl)-1H-pyrazol-3-yl)amino)-1-methyl-1H-imidazo[4,5-b]pyridine-7-carbonitrile]
21 | < 10 nM | Cn1cc(C(F)(F)F)cc(Nc2nc3ncc(Oc4cnn5ccnc(N[C@@H]6CCOC6)c45)c(Cl)c3n2C)c1=O [Example I-402, (R)-3-((7-chloro-1-methyl-6-((4-((tetrahydrofuran-3-yl)amino)pyrazolo[1,5-a]pyrazin-3-yl)oxy)-1H-imidazo[4,5-b]pyridin-2-yl)amino)-1-methyl-5-(trifluoromethyl)pyridin-2(1H)-one]
22 | < 10 nM | Cn1cc(C(F)(F)F)cc(Nc2nc3ncc(Oc4cnn5cc(NCCN6CCC(F)(F)C6)ncc45)c(Cl)c3n2C)c1=O [Example I-403, 3-((7-chloro-6-((6-((2-(3,3-difluoropyrrolidin-1-yl)ethyl)amino)pyrazolo[1,5-a]pyrazin-3-yl)oxy)-1-methyl-1H-imidazo[4,5-b]pyridin-2-yl)amino)-1-methyl-5-(trifluoromethyl)pyridin-2(1H)-one]
23 | 10 to 50 nM | CNc1cn2ncc(Oc3cnc4nc(Nc5cc(C(F)(F)F)cn(C)c5=O)n(C)c4c3)c2cn1 [Example I-404, 1-methyl-3-((1-methyl-6-((6-(methylamino)pyrazolo[1,5-a]pyrazin-3-yl)oxy)-1H-imidazo[4,5-b]pyridin-2-yl)amino)-5-(trifluoromethyl)pyridin-2(1H)-one]
